Test results from patent US11225465B2, “Albicidin derivatives, their use and synthesis” (TECHNISCHE UNIVERSITÄT BERLIN, priority 2017, dated 2022).
≈ marks a conversion by molar mass, not a printed value.

What was measured:
Assay in all cases: Microdilution assay, MIC
Type in all cases: cell-based
Bacillus subtilis DSM10 = details: DSM10, 20 h, read-out: MIC B. subtilis DSM10
Description: (§1) The tests were performed using the micro dilution method.
(§2) The determination of MIC values was performed according to the ninth edition of the Approved Standard M07-A9 (CLSI. Methods for Dilution Antimicrobial Susceptibility Tests for Bacteria That Grow Aerobically; Approved Standard—Ninth Edition. CLSI document M07-A9. Wayne, Pa.: Clinical and Laboratory Standards Institute; 2012.)
(§3) The test was carried out for four different bacterial strains (E. coli DSM 1116 [gram negative], B. subtilis DSM 10 [gram positive], M. luteus DSM 1790 [gram positive], S. typhimurium TA100 [gram negative]). 20 μL of cryo stock of each strain were inoculated in 20 mL of LB media (Lysogeny broth: 10 g/L peptone, 5 g/L yeast extract, 5 g/L NaCl) followed by incubation over night at 37° C., 200 rpm. The test inoculum was adjusted by the 0.5 McFarland Standard (OD625 from 0.08 to 0.1). Within 15 min of preparation, the adjusted inoculum suspension was diluted in MHBII media (BBL T M Mueller-Hinton Broth II, Becton, Dickinson and Company, N.J./USA) so that each well contained approximately 5×10^5 CFU/mL in a final volume of 100 μL. 95 μL of the inoculum were applied per well and 5 μL of the (diluted) antibiotic substance were added.
(§4) Previously the dry antibiotic compounds were dissolved in DMSO (100%) with a concentration of 2560 μg/mL and the resulting stock solutions were further diluted in DMSO (100%). 5 μL of each antibiotic dilution were applied to the microdilution tray to reach final concentrations of 64 μg/mL to 0.008 μg/mL. One row of each well plate was left as a growth control without antibiotic substances and another row of the microdilution tray was used as sterility control (only MHB II-media). The antimicrobial effect of the solvent (DMSO) was tested by adding 5 μL DMSO to several wells without antibiotics.
(§5) Purity check and cell titer control were performed according to International Standard M07-A9 on Mueller-Hinton II Agar (Mueller Hinton II Broth, 15 g/L agar-agar).
(§6) Both microdilution trays and agar plates were incubated at 37° C. for 20 h and subsequently analyzed visually.

S. typhimurium TA100 = details: Salmonella enterica, 20 h, read-out: MIC S. typhimurium TA100
Description: as §1, §2, §3, §4, §5, §6

E. coli DSM 1116 = details: Escherichia coli, DSM1116, 20 h, read-out: MIC E. coli DSM1116
Description: as §1, §2, §3, §4, §5, §6

[1] = tested on: Micrococcus luteus DSM1790; details: DSM1790, 20 h, read-out: MIC M. luteus DSM1790
Description: as §1, §2, §3, §4, §5, §6

Row | Structure (SMILES) | MIC (Bacillus subtilis DSM10) | MIC (S. typhimurium TA100) | MIC (E. coli DSM 1116) | MIC [1]
1 | COc1c(NC(=O)c2ccc(NC(=O)c3ccc(NC(=O)[C@H](Cc4c[nH]cn4)NC(=O)c4ccc(NC(=O)/C(C)=C/c5ccc(O)cc5)cc4)cc3)c(OC)c2O)ccc(C(=O)O)c1O [Compound 1, L-His-albicidin] | 500 µg/mL (≈ 566 µM) | 31 µg/mL (≈ 35.1 µM) | 63 µg/mL (≈ 71.3 µM) | 4000 µg/mL (≈ 4530 µM)
2 | COc1c(NC(=O)c2ccc(NC(=O)c3ccc(NC(=O)[C@H](CN(C)C)NC(=O)c4ccc(NC(=O)/C(C)=C/c5ccc(O)cc5)cc4)cc3)c(OC)c2O)ccc(C(=O)O)c1O [Compound 2, L-DMDAP-Albicidin] | 125 µg/mL (≈ 145 µM) | 31 µg/mL (≈ 36 µM) | 125 µg/mL (≈ 145 µM) | 2000 µg/mL (≈ 2320 µM)
3 | COc1c(NC(=O)c2ccc(NC(=O)c3ccc(NC(=O)C(Cc4c[nH]nn4)NC(=O)c4ccc(NC(=O)/C(C)=C/c5ccc(O)cc5)cc4)cc3)c(OC)c2O)ccc(C(=O)O)c1O [Compound 3, L-Azahis-Albicidin] | 125 µg/mL (≈ 141 µM) | ≤ 16 µg/mL | ≤ 16 µg/mL | 500 µg/mL (≈ 565 µM)
4 | COc1c(NC(=O)c2ccc(NC(=O)c3ccc(NC(=O)[C@@H](CN(C)C)NC(=O)c4ccc(NC(=O)/C(C)=C/c5ccc(O)cc5)cc4)cc3)c(OC)c2O)ccc(C(=O)O)c1O [Compound 16, D-DMDAP-Albicidin] | 1000 µg/mL (≈ 1160 µM) | 250 µg/mL (≈ 290 µM) | 500 µg/mL (≈ 581 µM) | ≥ 8000 µg/mL
